Target: integrin αvβ3 (Homo sapiens, UniProt P05106+P06756)
Assay: Competitive ELISA vs NS–RGDfK
Assay type: binding
Conditions: NS–RGDfK 0.5 OD; starting 50 μM

| Molecule | competition with NS–RGDfK for binding to integrin αvβ3 |
| --- | --- |
| CC(C)(CN)CNC(=O)NCCS(=O)(=O)N[C@@H](CNC(=O)c1ccc(OCCNC2=NCCCN2)cc1)C(=O)O.Cl [IAC, 4-[2-(3,4,5,6-tetrahydropyrimidin-2-ylamino)-ethyloxy]benzoyl-2-(S)-[N-(3-aminoneopenta-1-carbamyl)]-aminoethylsulfonylamino-h-alanine hydrochloride] | did compete with NS–RGDfK for binding to the integrin |
| cyclo-(Arg-Ala-Asp- D-Phe-Lys) (head to tail) [RADfK] | did not have any detectable competition with NS–RGDfK |
| N=C(N)NCCC[C@@H]1NC(=O)[C@H](CCCCN)NC(=O)[C@@H](Cc2ccccc2)NC(=O)[C@H](CC(=O)O)NC(=O)CNC1=O [RGDfK, cyclo(Arg-Gly-Asp-D-Phe-Lys)] | did compete with NS–RGDfK for binding to the integrin |

Source: publication PMC3058535 (International Journal of Nanomedicine, 2011)
